The numbers were not newly measured in PubChem BioAssay AID1259409 (Chemical Carcinogenesis Research Information System (CCRIS), 2018), which cites them from elsewhere.

The data set relates to rodent chemically induced tumor inhibition, incidence and multiplicity. Put plainly: CCRIS tumor inhibitor studies. Conditions: Route [Inhibitor]: ORAL; for tumour outcome (control, treated, inhibition, significance): Promoter: NONE USED; for outcome: Carcinogen: NONE, Strain/Sex: APC/MIN/MALE, Promoter: NONE.

Each structure is given as a SMILES string. Where “and” joins values, the source holds several entries; their conditions need not be identical. Identical values can stand only once.

In the case of `CN1C(C(=O)Nc2ccccn2)=C(O)c2ccccc2S1(=O)=O`, the “tumour outcome (control, treated, inhibition, significance)” value (Carcinogen: N-BUTYL-N-(4-HYDROXYBUTYL)NITROSAMINE, 3817-11-6, Dose [Inhibitor]: 0, 0.0075% IN DIET FOR 12 WK BEGINNING POST CARCINOGEN TREATMENT (STUDY DURATION: 20 WK), Species: RAT, Strain/Sex: F344/MALE, Target Tissue: Type of Lesion: URINARY BLADDER: TRANSITIONAL CELL CARCINOMA, Dose [Carcinogen]: 0.05% IN DRINKING WATER FOR 8 WK) is 10/12 (83%), 4/12 (33%), 60%, p<0.05; the “tumour outcome (control, treated, inhibition, significance)” value (Carcinogen: N-BUTYL-N-(4-HYDROXYBUTYL)NITROSAMINE, 3817-11-6, Dose [Inhibitor]: 0, 15 MG/KG DIET BEGINNING 1 WK PRIOR TO CARCINOGEN TREATMENT AND CONTINUING FOR DURATION OF STUDY (STUDY DURATION: 180, Species: MOUSE, Strain/Sex: BDF/MALE, Target Tissue: Type of Lesion: BLADDER: CARCINOMA, Dose [Carcinogen]: 7.5 MG IN 0.1 ML OF ETHANOL:WATER (20:80) 1/WK FOR 8 WK) was 25/63 (40%), 5/69 (7%), 83%, p<0.0001; the “tumour outcome (control, treated, inhibition, significance)” value (Carcinogen: N-BUTYL-N-(4-HYDROXYBUTYL)NITROSAMINE, 3817-11-6, Dose [Inhibitor]: 0, 30 MG/KG DIET BEGINNING 1 WK PRIOR TO CARCINOGEN TREATMENT AND CONTINUING FOR DURATION OF STUDY (STUDY DURATION: 180, Species: MOUSE, Strain/Sex: BDF/MALE, Target Tissue: Type of Lesion: BLADDER: CARCINOMA, Dose [Carcinogen]: 7.5 MG IN 0.1 ML OF ETHANOL:WATER (20:80) 1/WK FOR 8 WK) was 28/65 (43%), 7/56 (13%), 70%, p<0.001; the “tumour outcome (control, treated, inhibition, significance)” value (Carcinogen: N-BUTYL-N-(4-HYDROXYBUTYL)NITROSAMINE, 3817-11-6, Dose [Inhibitor]: 0, 75 PPM IN DIET FOR 12 WK BEGINNING POST CARCINOGEN TREATMENT (STUDY DURATION: 20 WK), Species: RAT, Strain/Sex: F344/MALE, Target Tissue: Type of Lesion: URINARY BLADDER: TRANSITIONAL CELL CARCINOMA, Dose [Carcinogen]: 0.05% IN DRINKING WATER FOR 8 WK) is reported as 18/20 (90%), 3/19 (16%), 82%, p<0.0001; the “tumour outcome (control, treated, inhibition, significance)” value (Carcinogen: N-METHYL-N-NITROSOUREA, 684-93-5, Dose [Inhibitor]: 130 MG/KG DIET DAILY STARTING 7 D AFTER LAST CARCINOGEN TREATMENT AND CONTINUING FOR 19 WK (STUDY DURATION: 21 WK), Species: RAT, Strain/Sex: SPRAGUE-DAWLEY/MALE, Target Tissue: Type of Lesion: INTESTINES: TUMOR, Dose [Carcinogen]: 0.8% IN 0.5 ML WATER 3 TIMES AT 2 D INTERVALS) was 9/9 (100%), 5/10 (50%), 50%, not calculated and 9/9 (100%), 3/9 (33%), 67%, not calculated; the “tumour outcome (control, treated, inhibition, significance)” value (Carcinogen: N-METHYLNITROSOUREA, 684-93-5, Dose [Inhibitor]: 0, 130 MG/KG VEGETABLE DIET (2.5 MG/D) BEGINNING 7 D POST LAST CARCINOGEN TREATMENT AND CONTINUING FOR STUDY DURATION (S, Species: RAT, Strain/Sex: CD-1/MALE, Target Tissue: Type of Lesion: INTESTINE: TUMOR, Dose [Carcinogen]: 0.5 ML OF 0.8% WATER SOLUTION 1/2 D FOR 6 D) is reported as 9/9 (100%), 3/9 (33%), 67%, not calculated. Moreover, the outcome is on record as 10.38, 5.47, 47%, p<0.01 (Dose [Inhibitor]: 12 PPM IN DIET FOR 2 MONTHS (STUDY DURATION: 2 MONTHS), Species: MOUSE, Target Tissue: Type of Lesion: DISTAL SMALL INTESTINE: TUMOR); 23.75, 16.20, 32%, not significant (Dose [Inhibitor]: 12 PPM IN DIET FOR 2 MONTHS (STUDY DURATION: 2 MONTHS), Species: MOUSE, Target Tissue: Type of Lesion: MIDDLE SMALL INTESTINE: TUMOR); 7.63, 14.80, -94%, p<0.01 (Dose [Inhibitor]: 12 PPM IN DIET FOR 2 MONTHS (STUDY DURATION: 2 MONTHS), Species: MOUSE, Target Tissue: Type of Lesion: PROXIMAL SMALL INTESTINE: TUMOR); 10.38, 2.50, 76%, p<0.001 (Dose [Inhibitor]: 25 PPM IN DIET FOR 2 MONTHS (STUDY DURATION: 2 MONTHS), Species: MOUSE, Target Tissue: Type of Lesion: DISTAL SMALL INTESTINE: TUMOR); 23.75, 10.93, 38%, p<0.001 (Dose [Inhibitor]: 25 PPM IN DIET FOR 2 MONTHS (STUDY DURATION: 2 MONTHS), Species: MOUSE, Target Tissue: Type of Lesion: MIDDLE SMALL INTESTINE: TUMOR); 10.38, 2.60, 75%, p<0.001 (Dose [Inhibitor]: 50 PPM IN DIET FOR 2 MONTHS (STUDY DURATION: 2 MONTHS), Species: MOUSE, Target Tissue: Type of Lesion: DISTAL SMALL INTESTINE: TUMOR). Further, the outcome runs as follows: (Dose [Inhibitor]: 50 PPM IN DIET FOR 2 MONTHS (STUDY DURATION: 2 MONTHS), Species: MOUSE, Target Tissue: Type of Lesion: MIDDLE SMALL INTESTINE: TUMOR) 23.75, 14.73, 38%, p<0.05; (Dose [Inhibitor]: 100 PPM IN DIET FOR 2 MONTHS (STUDY DURATION: 2 MONTHS), Species: MOUSE, Target Tissue: Type of Lesion: DISTAL SMALL INTESTINE: TUMOR) 10.38, 1.60, 85%, p<0.001; (Dose [Inhibitor]: 100 PPM IN DIET FOR 2 MONTHS (STUDY DURATION: 2 MONTHS), Species: MOUSE, Target Tissue: Type of Lesion: MIDDLE SMALL INTESTINE: TUMOR) 23.75, 10.40, 56%, p<0.001.
